Molecules are shown by their SMILES. Where a name gives a salt, the structure may show the parent alone.

Assay [1] deals with 3D7 strain of Plasmodium falciparum. Briefly: In vitro activity against 3D7 strain of Plasmodium falciparum ([3H]-hypoxanthine incorporation assay). The following applies: Erythrocyte, 48 h, P. falciparum 3D7 in human erythrocytes, 2 d, growth inhibition, read-out: IC50: 1 Org. Growth P. falciparum 3D7, 2 d (LPS_00570). Format: cell-based. The protocol: In Vitro Activity Against Plasmodium falciparum a) Against 3D7 Strain of Plasmodium falciparum Inhibition of 3D7 strain parasites was assessed using the [^3H]-hypoxanthine incorporation assay (Desjardins, et al. Antimicrob. Agents Chemother. 1979, 16, 710-718). Briefly, parasites were cultured in human erythrocytes (from the Spanish Red Cross blood bank) using RPMI-1640 culture media (Gibco) supplemented with 0.5% Albumax II (Invitrogen), 2% D-sucrose (Sigma-Aldrich), 0.3% glutamine (Sigma-Aldrich), and 5 mM hypoxanthine (Sigma-Aldrich). Cultures were maintained at 37° C. at an atmosphere of 5% O2, 5% CO2, and […]. To assess inhibition, asynchronous parasite cultures with 0.5% parasitemia and 2% hematocrit were exposed to 3-fold serial dilutions of test compounds for 24 hours in 96 well plate cultures (Costar #3894). After 24 hours, [^3H]-hypoxanthine was added, plates were incubated for an additional 24 hours, and parasites were harvested on glass fiber filters (Wallac #1450-421) using a cell harvester 96 (TOMTEC, Perkin Elmer). Filters were dried on scintillator sheets (MeltiLex A, PerkinElmer #1450-441) to determine incorporation of [^3H]-hypoxanthine. Radioactivity was measured using a microbeta counter (Perkin Elmer). Data are normalized using the incorporation of the positive control (infected erythrocytes without drug). IC50 values were determined using Excel and Grafit 5 software. Values were determined from at least three independent experiments, and standard deviations were calculated.

Assay [2] has as its system W2 strain of Plasmodium falciparum. As to the kind of experiment: In vitro activity against W2 strain of Plasmodium falciparum (YOYO-1 flow cytometry). Format: cell-based. The following applies: Erythrocyte, 48 h, P. falciparum W2 in human erythrocytes, 2 d, growth inhibition, read-out: IC50: 1 Org. Growth P. falciparum W2, 2 d (LPS_00451). The protocol:
In Vitro Activity Against Plasmodium falciparum
b) Against W2 Strain of Plasmodium falciparum
W2 strain P. falciparum parasites were cultured in human erythrocytes and RPMI-1640 culture media with either 10% human serum or 0.5% Albumax serum substitute under 3% O2, 5% CO2, and 92% N2. Parasites synchronized to ring stage by treatments with 5% D-sorbitol were cultured with serial dilutions of benzoxaboroles from 5 to 10 mM stocks in 96 well microplate cultures including 200 μL of media/well, 2% hematocrit, and 1% parasitemia. At the completion of 48 h incubations, when untreated cultures contained new rings, parasites were fixed with 2% formaldehyde for 48 h, and 5 μL aliquots were transferred to another 96 well plate containing 150 μL/well of staining solution (100 mM NH4Cl, 0.1% Triton X-100, and 1 nM YOYO-1 in PBS). Parasites per erythrocyte were then determined by flow cytometry from plots of forward scatter against fluorescence (excitation 488 nm, emission 520 nm) using a FacSort flow cytometer (Beckton Dickinson) equipped with an AMS Loader (Cytek Development). All values were normalized to percent control activity, and IC50s were calculated using the Prism 3.0 program (GRAPHPAD Software). Goodness of fit was assessed by R^2 values, and meaningful dose-response curves yielded R^2 values >0.95.
(In flow cytometry, cells or beads pass a laser one at a time.)

What is called IC50 is the concentration needed to halve the response being measured. Take `Cc1c(Oc2cnc(C(=O)N[C@@H](CO)CCC(F)(F)F)cn2)ccc2c1B(O)OC2` [Example 37, (R)-5-(1-hydroxy-7-methyl-1,3-dihydrobenzo[c][1,2]oxaborol-6-yloxy)-N-(5,5,5-trifluoro-1-hydroxypentan-2-yl)pyrazine-2-carboxamide]: the results for the IC50 in assay [1] and in assay [2] were 480 nM and 230 nM, respectively.

For `Cc1c(Oc2cnc(C(=O)NCC(C)(C)O)cn2)ccc2c1B(O)OC2` [Example 4, N-(2-hydroxy-2-methylpropyl)-5-(1-hydroxy-7-methyl-1,3-dihydrobenzo[c][1,2]oxaborol-6-yloxy)pyrazine-2-carboxamide], the IC50 in assay [1] worked out at 554 nM; in assay [2], 334 nM.

In the case of `Cc1c(Oc2cnc(C(=O)N[C@@H]3CCC[C@H]3O)cn2)ccc2c1B(O)OC2` [Example 42, 5-((1-hydroxy-7-methyl-1,3-dihydrobenzo[c][1,2]oxaborol-6-yl)oxy)-N-((1R,2R)-2-hydroxycyclopentyl)pyrazine-2-carboxamide], the IC50 in assay [1] stood at 245 nM; in assay [2], 133 nM.

For `Cc1c(Oc2cnc(C(=O)N[C@H]3CCC[C@@H]3O)cn2)ccc2c1B(O)OC2` [Example 46, 5-(1-hydroxy-7-methyl-1,3-dihydrobenzo[c][1,2]oxaborol-6-yloxy)-N-((1S,2S)-2-hydroxycyclopentyl)pyrazine-2-carboxamide], the IC50 in assay [1] amounted to 537 nM; in assay [2], 149 nM.

Take `CSC[C@H](CO)NC(=O)c1cnc(Oc2ccc3c(c2C)B(O)OC3)cn1` [Example 35, (S)—N-(1-hydroxy-3-(methylthio)propan-2-yl)-5-((1-hydroxy-7-methyl-1,3-dihydrobenzo[c][1,2]oxaborol-6-yl)oxy)pyrazine-2-carboxamide]: the IC50 in assay [1] was found to be 73.7 nM; in assay [2], 370 nM.

In the case of `Cc1c(Oc2cnc(C(=O)N[C@@H](CO)Cc3ccccc3)cn2)ccc2c1B(O)OC2` [Example 27, (R)—N-(1-hydroxy-3-phenylpropan-2-yl)-5-(1-hydroxy-7-methyl-1,3-dihydrobenzo[c][1,2]oxaborol-6-yloxy)pyrazine-2-carboxamide], the IC50 is 505 nM in assay [1] and 115 nM in assay [2].

Take `COC[C@H](CO)NC(=O)c1cnc(Oc2ccc3c(c2C)B(O)OC3)cn1` [Example 32, (S)—N-(1-hydroxy-3-methoxypropan-2-yl)-5-((1-hydroxy-7-methyl-1,3-dihydrobenzo[c][1,2]oxaborol-6-yl)oxy)pyrazine-2-carboxamide]: the results for the IC50 in assay [1] and in assay [2] were 796 nM and 512 nM, respectively.

As to `Cc1c(Oc2cnc(C(=O)N[C@@H](CO)c3ccccc3)cn2)ccc2c1B(O)OC2` [Example 26, (R)—N-(2-hydroxy-1-phenylethyl)-5-(1-hydroxy-7-methyl-1,3-dihydrobenzo[c][1,2]oxaborol-6-yloxy)pyrazine-2-carboxamide], the IC50 was 161 nM in assay [1] and 103 nM in assay [2].

For `Cc1c(Oc2cnc(C(=O)NC(CO)Cc3ccccc3)cn2)ccc2c1B(O)OC2` (stereo not shown) [Example 15, N-(1-hydroxy-3-phenylpropan-2-yl)-5-(1-hydroxy-7-methyl-1,3-dihydrobenzo[c][1,2]oxaborol-6-yloxy)pyrazine-2-carboxamide], the IC50 in assay [1] amounted to 407 nM; in assay [2], 297 nM.

For the compound `CC[C@@H](CO)NC(=O)c1cnc(Oc2ccc3c(c2C)B(O)OC3)cn1` [Example 21, (S)-5-(1-hydroxy-7-methyl-1,3-dihydrobenzo[c][1,2]oxaborol-6-yloxy)-N-(1-hydroxybutan-2-yl)pyrazine-2-carboxamide], the IC50 came out at 801 nM in assay [1] and 704 nM in assay [2].

Take `Cc1c(Oc2cnc(C(=O)N3CCNC[C@@H]3CO)cn2)ccc2c1B(O)OC2` [Example 51, (R)-(5-(1-hydroxy-7-methyl-1,3-dihydrobenzo[c][1,2]oxaborol-6-yloxy)pyrazin-2-yl) (2-(hydroxymethyl)piperazin-1-yl)methanone Hydrochloric Acid Salt]: the IC50 worked out at 151 nM in assay [1] and 103 nM in assay [2].

With `Cc1c(Oc2cnc(C(=O)NC3(CO)CC3)cn2)ccc2c1B(O)OC2` [Example 17, 5-((1-hydroxy-7-methyl-1,3-dihydrobenzo[c][1,2]oxaborol-6-yl)oxy)-N-(1-(hydroxymethyl)cyclopropyl)pyrazine-2-carboxamide], the IC50 in assay [1] was found to be 1500 nM; in assay [2], 2010 nM.

Turning to `CC[C@@H](NC(=O)c1cnc(Oc2ccc3c(c2C)B(O)OC3)cn1)C(C)(C)O` [Example 45, (R)—N-(2-hydroxy-2-methylpentan-3-yl)-5-(1-hydroxy-7-methyl-1,3-dihydrobenzo[c][1,2]oxaborol-6-yloxy)pyrazine-2-carboxamide], the IC50 in assay [1] was 222 nM; in assay [2] it was 91.8 nM.

For `CC[C@H](NC(=O)c1cnc(Oc2ccc3c(c2C)B(O)OC3)cn1)C(C)(C)O` [Example 53, (S)—N-(2-hydroxy-2-methylpentan-3-yl)-5-(1-hydroxy-7-methyl-1,3-dihydrobenzo[c][1,2]oxaborol-6-yloxy)pyrazine-2-carboxamide], the IC50 is 829 nM in assay [1] and 279 nM in assay [2].

As to `C=C[C@@H](CO)NC(=O)c1cnc(Oc2ccc3c(c2C)B(O)OC3)cn1` [Example 29, (S)-5-(1-hydroxy-7-methyl-1,3-dihydrobenzo[c][1,2]oxaborol-6-yloxy)-N-(1-hydroxybut-3-en-2-yl)pyrazine-2-carboxamide], the IC50 in assay [1] worked out at 764 nM; in assay [2], 828 nM.

For the compound `Cc1c(Oc2cnc(C(=O)NC(CO)CC(C)C)cn2)ccc2c1B(O)OC2` (stereo not shown) [Example 8, N-(1-hydroxy-4-methylpentan-2-yl)-5-((1-hydroxy-7-methyl-1,3-dihydrobenzo[c][1,2]oxaborol-6-yl)oxy)pyrazine-2-carboxamide], the IC50 in assay [1] stood at 937 nM; in assay [2] it was 930 nM.

For `Cc1c(Oc2cnc(C(=O)N[C@@H](C)C(C)(C)O)cn2)ccc2c1B(O)OC2` [Example 47, (S)—N-(3-hydroxy-3-methylbutan-2-yl)-5-(1-hydroxy-7-methyl-1,3-dihydrobenzo[c][1,2]oxaborol-6-yloxy)pyrazine-2-carboxamide], the IC50 in assay [1] was found to be 327 nM; in assay [2], 202 nM.

With `Cc1c(Oc2cnc(C(=O)NC(CO)c3ccccc3)cn2)ccc2c1B(O)OC2` (stereo not shown) [Example 16, N-(2-hydroxy-1-phenylethyl)-5-(1-hydroxy-7-methyl-1,3-dihydrobenzo[c][1,2]oxaborol-6-yloxy)pyrazine-2-carboxamide], the IC50 was 380 nM in assay [1] and 223 nM in assay [2].

For `Cc1c(Oc2cnc(C(=O)N[C@H](C)C(C)(C)O)cn2)ccc2c1B(O)OC2` [Example 48, (R)—N-(3-hydroxy-3-methylbutan-2-yl)-5-(1-hydroxy-7-methyl-1,3-dihydrobenzo[c][1,2]oxaborol-6-yloxy)pyrazine-2-carboxamide], the results for the IC50 in assay [1] and in assay [2] were 374 nM and 265 nM, respectively.

With `Cc1c(Oc2cnc(C(=O)N3CC(O)(C(C)C)C3)cn2)ccc2c1B(O)OC2` [Example 57, (3-hydroxy-3-isopropylazetidin-1-yl) (5-((1-hydroxy-7-methyl-1,3-dihydrobenzo[c][1,2]oxaborol-6-yl)oxy)pyrazin-2-yl)methanone], the values for the IC50 in assay [1] and in assay [2] were 369 nM and 40.7 nM, respectively.

The record behind these values is US10011616B2, “Boron-containing small molecules as antiprotozoal1 agents” (MMV MEDICINES FOR MALARIA VENTURE, priority 2015, dated 2018).
